Source: ChEMBL document CHEMBL5244272 (Eur J Med Chem, 2021)

Legend:
Format in all cases: functional, organism-based
Plasmodium falciparum [1] = assay: Antimalarial activity against Plasmodium falciparum NF54
Plasmodium falciparum [2] = assay: Antimalarial activity against Plasmodium falciparum K1; conditions: for EC50: read-out: EC50
Plasmodium falciparum [3] = assay: Antimalarial activity against Plasmodium falciparum W2
Plasmodium falciparum [4] = assay: Antimalarial activity against Plasmodium falciparum D10
Plasmodium falciparum [5] = assay: Antimalarial activity against Plasmodium falciparum D6
Plasmodium falciparum [6] = assay: Antimalarial activity against Plasmodium falciparum 3D7

SMILES	IC50 (Plasmodium falciparum [3])	IC50 (Plasmodium falciparum [5])	also measured
CCCCC(=O)C1=C(C)[C@@H]2CC[C@@H](C)[C@@H]3CC[C@]4(C)OO[C@@]23[C@H](O1)O4			IC50 (Plasmodium falciparum [1]): 4.3 nM
C[C@@H]1CC[C@H]2[C@H](C[C@@]3(CCCCCC[C@]4(C[C@@H]5C(=O)O[C@@H]6O[C@]7(C)CC[C@H]8[C@H](C)CC[C@@H]5[C@@]68OO7)C(=O)O[C@@H]5O[C@]6(C)CC[C@H]7[C@H](C)CC[C@@H]4[C@@]57OO6)C(=O)O[C@@H]4O[C@]5(C)CC[C@H]6[C@H](C)CC[C@@H]3[C@@]46OO5)C(=O)O[C@@H]3O[C@]4(C)CC[C@@H]1[C@]32OO4			EC50 (Plasmodium falciparum [2]): 20 nM
CC1(C)OOC2(OCc3ccccc3)CCCC1C2 (configuration not stated)	430 nM		IC50 (Plasmodium falciparum [4]): 800 nM
CC1(C)OOC2(OCCCC34CC5CC(CC(C5)C3)C4)CCCC1C2 (configuration not stated)	160 nM		IC50 (Plasmodium falciparum [4]): 240 nM
C[C@H]1[C@@H](O[C@H](CCC(=O)O)c2ccc(Br)cc2)O[C@@H]2O[C@]3(C)CC[C@H]4[C@H](C)CC[C@@H]1[C@@]24OO3	0.313 ng/mL	0.405 ng/mL	
COC(=O)CC(C)CO[C@H]1O[C@@H]2O[C@]3(C)CC[C@H]4[C@H](C)CC[C@@H]([C@H]1C)[C@@]24OO3 (some centres not stated)	0.48 ng/mL	1.91 ng/mL	
C[C@H]1[C@H](N2CCNCC2)O[C@@H]2O[C@]3(C)CC[C@H]4[C@H](C)CC[C@@H]1[C@@]24OO3			IC50 (Plasmodium falciparum [1]): 3.2 nM
C[C@@H]1CC[C@H]2[C@@H](CCCc3cc(C(F)(F)F)cc(C(F)(F)F)c3)C(=O)O[C@@H]3O[C@]4(C)CC[C@@H]1[C@]32OO4	7.11 ng/mL	0.78 ng/mL	IC50 (Plasmodium falciparum [2]): 4.06 ng/mL
C[C@H]1[C@@H](O[C@@H]2O[C@H](CO)[C@@H](O)[C@H](O)[C@H]2O)O[C@@H]2O[C@]3(C)CC[C@H]4[C@H](C)CC[C@@H]1[C@@]24OO3	0.19 ng/mL	2.48 ng/mL	
CC1(C)CCCCC12OOC1(CCCCC1(C)C)OO2 (configuration not stated)	> 1000 nM	> 1000 nM	
CC1=C(C(O)(c2ccccc2)c2ccccc2)O[C@@H]2O[C@]3(C)CC[C@H]4[C@H](C)CC[C@@H]1[C@@]24OO3			IC50 (Plasmodium falciparum [1]): 4.5 nM
C[C@H]1[C@H](Nc2ccccc2)O[C@@H]2O[C@]3(C)CC[C@H]4[C@H](C)CC[C@@H]1[C@@]24OO3	0.66 ng/mL	0.66 ng/mL	
C[C@H]1[C@@H](OCc2ccc(C(=O)N(CCNc3ccnc4cc(Cl)ccc34)CC(=O)NC(C)(C)C)cc2)O[C@@H]2O[C@]3(C)CC[C@H]4[C@H](C)CC[C@@H]1[C@@]24OO3			IC50 (Plasmodium falciparum [2]): 19 nM; IC50 (Plasmodium falciparum [4]): 27 nM
C[C@H]1[C@H](N2CCN([C@@H]3O[C@H](CO)[C@@H](O)[C@H](O)[C@H]3O)CC2)O[C@@H]2O[C@]3(C)CC[C@H]4[C@H](C)CC[C@@H]1[C@@]24OO3	0.71 nM		IC50 (Plasmodium falciparum [4]): 0.87 nM
Cc1ccccc1COC12CCCC(C1)C(C)(C)OO2 (configuration not stated)	630 nM		IC50 (Plasmodium falciparum [4]): 740 nM
C[C@H]1[C@@H](O[C@H](CCC(=O)O)c2ccc(Cl)cc2)O[C@@H]2O[C@]3(C)CC[C@H]4[C@H](C)CC[C@@H]1[C@@]24OO3	0.357 ng/mL	0.38 ng/mL	
C[C@@H]1CC[C@H]2[C@H](C[C@@]3(CCCCCCCC4C(=O)O[C@@H]5O[C@]6(C)CC[C@H]7[C@H](C)CC[C@@H]4[C@@]57OO6)C(=O)O[C@@H]4O[C@]5(C)CC[C@H]6[C@H](C)CC[C@@H]3[C@@]46OO5)C(=O)O[C@@H]3O[C@]4(C)CC[C@@H]1[C@]32OO4 (some centres not stated)			EC50 (Plasmodium falciparum [2]): 3.1 nM
C[C@H]1[C@H](N2CCN([C@@H]3O[C@@H](C)[C@H](O)[C@@H](O)[C@H]3O)CC2)O[C@@H]2O[C@]3(C)CC[C@H]4[C@H](C)CC[C@@H]1[C@@]24OO3	0.74 nM		IC50 (Plasmodium falciparum [4]): 0.74 nM
C[C@H]1[C@H](NS(N)(=O)=O)O[C@@H]2O[C@]3(C)CC[C@H]4[C@H](C)CC[C@@H]1[C@@]24OO3	2.04 nM		IC50 (Plasmodium falciparum [2]): 1.79 nM; IC50 (Plasmodium falciparum [1]): 3.1 nM
C[C@@H]1CC[C@H]2[C@@H](CCCc3ccc(Cl)cc3)C(=O)O[C@@H]3O[C@]4(C)CC[C@@H]1[C@]32OO4	2.6 ng/mL	1.9 ng/mL	
C[C@@H]1CCC[C@@H](C)C12OOC1(OO2)[C@@H](C)CCC[C@@H]1C	> 1000 nM	> 1000 nM	
CC1(C)OOC2(OCCC34CC5CC(CC(C5)C3)C4)CCCC1C2 (configuration not stated)	440 nM		IC50 (Plasmodium falciparum [4]): 580 nM
CC1(C)OOC2(OCC34CC5CC(CC(C5)C3)C4)CCCC1C2 (configuration not stated)	270 nM		IC50 (Plasmodium falciparum [4]): 330 nM
C[C@@H]1CC[C@H]2[C@H](C[C@@]3(CCCCCCC[C@]4(C[C@@H]5C(=O)O[C@@H]6O[C@]7(C)CC[C@H]8[C@H](C)CC[C@@H]5[C@@]68OO7)C(=O)O[C@@H]5O[C@]6(C)CC[C@H]7[C@H](C)CC[C@@H]4[C@@]57OO6)C(=O)O[C@@H]4O[C@]5(C)CC[C@H]6[C@H](C)CC[C@@H]3[C@@]46OO5)C(=O)O[C@@H]3O[C@]4(C)CC[C@@H]1[C@]32OO4			EC50 (Plasmodium falciparum [2]): 5.8 nM
C[C@@H]1CC[C@H]2[C@@H](C)C(=O)N(S(=O)(=O)c3ccc4ccccc4c3)[C@@H]3O[C@]4(C)CC[C@@H]1[C@@]23OO4			IC50 (Plasmodium falciparum [2]): 0.2 ng/mL; IC50 (Plasmodium falciparum [6]): 2.8 ng/mL
CCN(CC)Cc1ccc(C(C)O[C@H]2O[C@@H]3O[C@]4(C)CC[C@H]5[C@H](C)CC[C@@H]([C@H]2C)[C@@]35OO4)cc1O (some centres not stated)			IC50 (Plasmodium falciparum [2]): 0.18 ng/mL; IC50 (Plasmodium falciparum [1]): 0.36 ng/mL
CCCCCCCC[C@H]1CCC2C3CC[C@H]4C[C@]5(CC[C@]4(C)C3CC[C@@]21C)OO[C@]1(CC[C@@H]2CCC3C4CC[C@H](CCCCCCCC)[C@@]4(C)CCC3[C@@]2(C)C1)OO5 (some centres not stated)		155 nM	
CS(=O)(=O)N1CCN(CCOc2ccc(C3CCC4(CC3)OOC3(OO4)C4CC5CC(C4)CC3C5)cc2)CC1 (configuration not stated)			IC50 (Plasmodium falciparum [6]): 3.5 nM

SMILES	IC50 (Plasmodium falciparum [3])	IC50 (Plasmodium falciparum [5])	also measured
C[C@H]1[C@@H](OCc2ccc(C(=O)O)cc2)O[C@@H]2O[C@@]3(C)CC[C@H]4[C@H](C)CC[C@@H]1[C@@]24OO3	1.38 ng/mL	4.07 ng/mL	
C[C@@H]1CC[C@H]2[C@@H](C)C(=O)N(C(=O)c3cccc([N+](=O)[O-])c3)[C@@H]3O[C@]4(C)CC[C@@H]1[C@@]23OO4			IC50 (Plasmodium falciparum [2]): 0.6 ng/mL; IC50 (Plasmodium falciparum [6]): 0.46 ng/mL
C[C@H]1[C@H](Nc2ccc(I)cc2)O[C@@H]2O[C@]3(C)CC[C@H]4[C@H](C)CC[C@@H]1[C@@]24OO3	0.33 ng/mL	0.33 ng/mL	
CS(=O)(=O)N1CCN(CCCOc2ccc(C3CCC4(CC3)OOC3(OO4)C4CC5CC(C4)CC3C5)cc2)CC1 (configuration not stated)			IC50 (Plasmodium falciparum [6]): 3.7 nM
C[C@@H]1CCCCC12OOC1(CCCC[C@@H]1C)OO2 (some centres not stated) [WR-148999]	7.3 nM	8.4 nM	
C=C(c1ccc(F)cc1F)C1COC2(OO1)C1CC3CC(C1)CC2C3 (configuration not stated)			IC50 (Plasmodium falciparum [6]): 25.7 nM
C[C@@H]1CC[C@H]2[C@@H](C)C(=O)N(S(=O)(=O)c3cccc4cccnc34)[C@@H]3O[C@]4(C)CC[C@@H]1[C@@]23OO4			IC50 (Plasmodium falciparum [2]): 2 ng/mL; IC50 (Plasmodium falciparum [6]): 1.9 ng/mL
CCCC[C@H]1O[C@@H]2O[C@]3(C)CC[C@H]4[C@H](C)CC[C@@H]([C@H]1C)[C@@]24OO3	0.16 ng/mL	0.41 ng/mL	
CC1=C(C(=O)c2ccccc2)O[C@@H]2O[C@]3(C)CC[C@H]4[C@H](C)CC[C@@H]1[C@@]24OO3			IC50 (Plasmodium falciparum [1]): 4.6 nM
COC(=O)CC[C@@H](C)[C@H]1CCC2C3CC[C@@H]4CC5(CC[C@]4(C)C3C[C@H](OC(C)=O)[C@@]21C)OOC(C)(C(F)(F)F)OO5 (some centres not stated)			IC50 (Plasmodium falciparum [2]): 7.6 nM
CC(C)OC[C@H]1O[C@@H](O[C@H]2O[C@@H]3O[C@]4(C)CC[C@H]5[C@H](C)CC[C@@H]([C@H]2C)[C@@]35OO4)[C@H](O)[C@@H](O)[C@@H]1OC(C)C	0.31 ng/mL	1.43 ng/mL	
C[C@@H]1CC[C@H]2[C@@H](C)C(=O)N(S(=O)(=O)c3ccc(C(F)(F)F)cc3)[C@@H]3O[C@]4(C)CC[C@@H]1[C@@]23OO4	2.39 nM		IC50 (Plasmodium falciparum [2]): 3.15 nM; IC50 (Plasmodium falciparum [1]): 2.04 nM
CCCCCCCCS(=O)(=O)N1C(=O)[C@H](C)[C@@H]2CC[C@@H](C)[C@@H]3CC[C@]4(C)OO[C@]32[C@H]1O4			IC50 (Plasmodium falciparum [2]): 1.1 ng/mL; IC50 (Plasmodium falciparum [6]): 2.1 ng/mL
C[C@@H]1CC[C@H]2[C@@H](CCCc3cc(F)cc(F)c3)C(=O)O[C@@H]3O[C@]4(C)CC[C@@H]1[C@]32OO4	6.5 ng/mL	0.82 ng/mL	IC50 (Plasmodium falciparum [2]): 3.2 ng/mL
c1cc(C2CCC3(CC2)OOC2(OO3)C3CC4CC(C3)CC2C4)ccc1OCCNC1CCOCC1 (configuration not stated)			IC50 (Plasmodium falciparum [6]): 0.5 nM
C[C@H]1[C@H](Nc2ccc(Br)cc2)O[C@@H]2O[C@]3(C)CC[C@H]4[C@H](C)CC[C@@H]1[C@@]24OO3	0.23 ng/mL	0.23 ng/mL	
C[C@@H]1CC[C@H]2[C@@H](CCCc3ccccc3)C(=O)O[C@@H]3O[C@]4(C)CC[C@@H]1[C@]32OO4	1.35 ng/mL	0.9 ng/mL	
COC(=O)CC[C@@H](C)[C@H]1CCC2C3CC[C@@H]4CC5(CC[C@]4(C)C3C[C@H](OC(C)=O)[C@@]21C)OOC(C)(C)OO5 (some centres not stated)			IC50 (Plasmodium falciparum [2]): 3 nM
C[C@H]1[C@@H](Nc2cccc(F)c2)O[C@@H]2O[C@]3(C)CC[C@H]4[C@H](C)CC[C@@H]1[C@@]24OO3	< 0.16 ng/mL	< 0.16 ng/mL	
C[C@H]1[C@H](N2CCN([C@@H]3O[C@H](CO)[C@H](O)[C@H]3O)CC2)O[C@@H]2O[C@]3(C)CC[C@H]4[C@H](C)CC[C@@H]1[C@@]24OO3	0.58 nM		IC50 (Plasmodium falciparum [4]): 0.66 nM
COC(=O)Nc1nc2cc(C(=O)c3ccccc3)ccc2n1C(=O)O[C@H]1O[C@@H]2O[C@]3(C)CC[C@H]4[C@H](C)CC[C@@H]([C@H]1C)[C@@]24OO3			IC50 (Plasmodium falciparum [6]): 6.86 nM
C[C@@H]1CC[C@H]2[C@@H](C)C(=O)N(S(=O)(=O)c3cccc([N+](=O)[O-])c3)[C@@H]3O[C@]4(C)CC[C@@H]1[C@@]23OO4			IC50 (Plasmodium falciparum [2]): 2.2 ng/mL; IC50 (Plasmodium falciparum [6]): 2.1 ng/mL
C[C@@H]1CC[C@H]2[C@@H](C)C(=O)N(C(=O)Cc3ccc([N+](=O)[O-])cc3)[C@@H]3O[C@]4(C)CC[C@@H]1[C@@]23OO4			IC50 (Plasmodium falciparum [2]): 0.4 ng/mL; IC50 (Plasmodium falciparum [6]): 0.6 ng/mL
C[C@@H]1CC[C@H]2[C@@H](C)C(=O)N(C(=O)c3ccc([N+](=O)[O-])cc3)[C@@H]3O[C@]4(C)CC[C@@H]1[C@@]23OO4			IC50 (Plasmodium falciparum [2]): 0.6 ng/mL; IC50 (Plasmodium falciparum [6]): 0.45 ng/mL
CCCCNC(=O)CCC(C)[C@H]1CCC2C3C(C[C@H](OC(C)=O)[C@@]21C)[C@@]1(C)CC[C@]2(C[C@@H]1C[C@H]3OC(C)=O)OO[C@@]1(CC[C@]3(C)C4C[C@H](OC(C)=O)[C@@]5(C)C(CC[C@@H]5C(C)CCC(=O)NCCCC)C4[C@H](OC(C)=O)C[C@H]3C1)OO2 (some centres not stated)		20.1 nM	
CCCCNC(=O)CCC(C)[C@H]1CCC2C3C(C[C@H](OC(C)=O)[C@@]21C)[C@@]1(C)CC[C@]2(C[C@@H]1C[C@H]3OC(C)=O)OO[C@@]1(CC[C@@H]3C[C@@H](OC(C)=O)C4C5CC[C@H](C(C)CCC(=O)NCCCC)[C@@]5(C)[C@@H](OC(C)=O)CC4[C@@]3(C)C1)OO2 (some centres not stated)		9.29 nM	
CC1(C)OOC2(OCCc3ccccc3)CCCC1C2 (configuration not stated)	250 nM		IC50 (Plasmodium falciparum [4]): 670 nM
